Results on 4 molecules are retold here after patent publication US12029793B2, “pH low insertion peptide targeted delivery of potent cytotoxic compounds” (University of Rhode Island Board of Trustees, priority 2019, dated 2024).

In data set [1] the test system is panel of urinary bladder cancer cell lines. Kind of data set: Cell viability on panel of urinary bladder cancer cell lines (summary statements). Format: cell-based. The conditions noted are these: amanitin alone, two hours, concentrations up to 2 μM. How it is done: The cytotoxic and highly polar agents, like amanitin, may be especially effective in topical applications.
Cancer cells were loaded in the wells of 96-well plates (5,000 cells/well) and incubated overnight. The standard growth medium was replaced with medium without FBS, at pH 6.0 or 7.4, containing increasing amounts of pHLIP-S-S-amanitin (from 0 to 2.0 μM). The pH 6.0 medium was prepared by mixing 13.3 g of dry DMEM in 1 L of deionized water. After two-hour incubation with the pHLIP-S-S-amanitin, the construct was removed and replaced with standard growth medium. […] Cell viability was assessed after 48 hours using the colorimetric CellTiter 96 AQueous One Solution Cell Proliferation Assay by absorption measurement at 490 nm (FIG. 20B presents an example of the data obtained on SCaBER squamous cell carcinoma).
There was no difference in the viability of cells incubated with media, without construct, at pH 7.4 and pH 6.0; therefore, the role of pH was excluded from the consideration. Therapeutic index (TI) was calculated according to the equation: […]
Table 8 below contains EC50 values obtained for the treatment at pH 7.4 and pH 6.0 and calculated therapeutic index, which clearly indicated a pH-dependent cell action of pHLIP-S-S-amanitin. […]

In data set [2] the test system is HeLa human cervical tumors. As to the kind of experiment: Tumor weight after IP treatment with pHLIP-S-S-calicheamicin. The conditions noted are these: multiple IP injections once in 3-4 days, total ~1.5 mg/kg, vs non-treated control. Format: in vivo, female athymic nude mice. How it is done:
FIG. 21C depicts box plot presenting mean (filled squares), median, 25 and 75 percentiles (box) and standard deviation values of tumor weights after IP and IT treatment with pHLIP-S-S-calicheamicin compared to the control (non-treated) group. P-level was calculated using two-tailed test.
Calicheamicin modified with SPDP was synthesized and purified by Cfm, GmbH (FIG. 21A). Calicheamicin-SPDP was used to conjugate with Cys residue of pHLIP® peptide's membrane-inserting end to obtain pHLIP-S-S-calicheamicin. The pHLIP® peptide used in the study: […] (SEQ ID NO: 3) was prepared by solid-phase synthesis. Purification of the pHLIP-S-S-calicheamicin was conducted using RP-HPLC (the gradient: 10 mM TEAA buffer and acetonitrile), followed by lyophilization. The construct purity and identity was established by analytical RP-HPLC and surface-enhanced laser desorption/ionization time of flight (SELDI-TOF) mass spectroscopy, respectively. Construct concentration was calculated by absorbance at 280 nm for pHLIP® peptide with correction on absorbance of calicheamicin. pHLIP-S-S-calicheamicin dissolved in PBS was given as multiple intraperitoneal (IP) or intratumoral (IT) injections (once in 3-4 days) into mice bearing HeLa human cervical tumors in flank of female athymic nude mice.
The total combined dose of the multiple IP injections of pHLIP-S-S-calicheamicin was ˜1.5 mg/kg. […]

Data set [3] has as its system HeLa human cervical tumors. Kind of data set: Tumor weight after treatment with pHLIP-S-S-exatecan. Format: in vivo, female athymic nude mice.
The test system of data set [4] is MDA-MB-231 human triple negative breast or HeLa human cervical tumors. As to the kind of experiment: Tumor weight after IP or IT treatment with pHLIP-S-S-mertansine. Format: in vivo, female athymic nude mice. The conditions noted are these: for tumor weight reduction: vs non-treated control. How it is done:
FIG. 19C depicts a box plot presenting mean (filled square), median, 25 and 75 percentiles (box itself) and standard deviation values of the tumor weights collected after IP and IT treatment with pHLIP-S-S-mertansine compared to the control (non-treated) group. P-level was calculated using two-tailed test.
pHLIP-S-S-mertansine dissolved in PBS and was given as multiple intraperitoneal (IP) or intratumoral (IT) injections (once in 3-4 days) into mice bearing MDA-MB-231 human triple negative breast or HeLa human cervical tumors in flanks of female athymic nude mice. The total combined dose of the multiple IP injections of pHLIP-S-S-mertansine was […], and the total combined dose of the multiple IT injections of pHLIP-S-S-mertansine was ˜2.5 mg/kg. When the tumor reached a size of about 1 cm^3 (about 1 g) in the control (non-treated) group, the animals were sacrificed; tumors were collected (FIG. 19B) and weighted (FIG. 19C).
In a separate experiment, IT injections were performed, tumors disappeared and mice were left for several weeks.

Side chains are listed from the residue outwards. Ends that are not written are not given here. * marks the point of attachment. mertansine = COc1cc2cc(c1Cl)N(C)C(=O)C[C@H](OC(=O)[C@H](C)N(C)C(=O)CCS*)[C@]1(C)O[C@H]1[C@H](C)[C@@H]1C[C@@](O)(NC(=O)O1)[C@H](OC)/C=C/C=C(\C)C2; SPDP = linker on the drug for disulfide conjugation to Cys

With `CC[C@H](C)[C@@H]1NC(=O)CNC(=O)[C@@H]2Cc3c([nH]c4cc(O)ccc34)[S@+]([O-])C[C@H](NC(=O)CNC1=O)C(=O)N[C@@H](CC(N)=O)C(=O)N1C[C@H](O)C[C@H]1C(=O)N[C@@H]([C@@H](C)[C@@H](O)CO)C(=O)N2` [amanitin, alpha-amanitin], the “induction of cell death” value in data set [1] is given as “did not induce cell death”.
Consider “pHLIP-S-S-calicheamicin: Calicheamicin-SPDP conjugated with Cys residue of membrane-inserting end of pHLIP peptide ADDQNPWRAYLDLLFPTDTLLLDLLWCA (SEQ ID NO: 3) (ADDQNPWRAYLDLLFPTDTLLLDLLWC([SPDP-calicheamicin])A)”, for which the tumor weight reduction result in data set [2] is reported as “About 88%”.
Take “pHLIP-S-S-exatecan: Exatecan-SPDP conjugated with single Cys residue of membrane-inserting end of pHLIP peptide ADDQNPWRAYLDLLFPTDTLLLDLLWCA (SEQ ID NO: 3) (ADDQNPWRAYLDLLFPTDTLLLDLLWC([SPDP-exatecan])A)”: the tumor weight reduction is 50-60% in data set [3] (IP administration, multiple injections once in 3-4 days, vs non-treated control) and “more than 70%” in data set [3] (IT administration).
In the case of “pHLIP-S-S-mertansine: Mertansine (DM1) conjugated to membrane-inserting end of pHLIP peptide ADDQNPWRAYLDLLFPTDTLLLDLLWCA (SEQ ID NO: 3) via cleavable S-S link (ADDQNPWRAYLDLLFPTDTLLLDLLWC(mertansine)A)”, the tumor disappearance result in data set [4] (after IT administration, in some cases) is reported as “tumor disappeared”. Moreover, the signs of toxicity entry in data set [4] (in the course of IP or IT treatment) is reported as “no signs of toxicity”. Also, the tumor weight reduction entry was “About 60%” in data set [4] (multiple IP injections once in 3-4 days, total combined dose −10 mg/kg) and “more than 90%” in data set [4] (multiple IT injections once in 3-4 days, total combined dose ~2.5 mg/kg). Also, the “cases with no tumor re-growth” value in data set [4] (separate experiment, IT injections, tumors disappeared, mice left for several weeks) turned out to be 60%.
